Source: patent publication US7259004B1, “Endophytic streptomycetes from higher plants with biological activity” (Montana State University, priority 2002, dated 2007)
≈ marks a conversion by molar mass, not a printed value.

How the values were obtained:
[1] = tested on: Listeria monocytogenes 19114; experiment: microbroth dilution MIC; type: cell-based; details: Listeria monocytogenes, ATCC19114; Table 15; read-out: MIC Listeria monocytogenes ATCC 19114
[2] = tested on: Staphylococcus aureus GISA, ATCC 700787; experiment: microbroth dilution MIC; type: cell-based; details: ATCC700787, read-out: MIC Staphylococcus aureus GISA, ATCC 700787
[3] = tested on: Streptococcus pneumoniae 49619; experiment: microbroth dilution MIC; type: cell-based; details: Streptococcus pneumoniae, ATCC49619; Table 15; read-out: MIC Streptococcus pneumoniae ATCC 49619
S. aureus 29213 = experiment: microbroth dilution MIC; type: cell-based, Staphylococcus aureus; details: Staphylococcus aureus, ATCC29213; Table 15; read-out: MIC Staphylococcus aureus ATCC 29213
[4] = tested on: Neisseria gonnorhea ATCC 49226; experiment: disk diffusion assay; type: cell-based; details: 10 micrograms per disk; ciprofloxacin 5, vancomycin 30 micrograms per disk; GC agar with 1% growth supplement with 5% CO2
[5] = tested on: Staphylococcus aureus ATCC 33591 (MRSA); experiment: microbroth dilution MIC; type: cell-based; details: Staphylococcus aureus; Table 15
[6] = tested on: Staphylococccus aureus 27734; experiment: microbroth dilution MIC; type: cell-based, Staphylococcus aureus; details: Staphylococcus aureus, ATCC27734; Table 15; read-out: MIC Staphylococcus aureus ATCC 27734
[7] = tested on: Listeria monocytogenes 19115; experiment: microbroth dilution MIC; type: cell-based; details: Listeria monocytogenes, ATCC19115; Table 15; read-out: MIC Listeria monocytogenes ATCC 19115
E. faecium 49624 = experiment: microbroth dilution MIC; type: cell-based, Enterococcus faecium; details: Enterococcus faecium, ATCC49624; Table 15; read-out: MIC Enterococcus faecium ATCC 49624
S. aureus ATCC 6583P = experiment: MIC with and without double stranded DNA; type: cell-based, Staphylococcus aureus; details: Staphylococcus aureus, ATCC6583P, read-out: MIC S. aureus ATCC 6583P
S. epidermis 12228 = experiment: microbroth dilution MIC; type: cell-based, Staphylococcus epidermidis; details: Staphylococcus epidermidis, ATCC12228; Table 15; read-out: MIC Staphylococcus epidermidis ATCC 12228
[8] = tested on: Streptococcus pneumoniae ATCC 49619; experiment: disk diffusion assay; type: cell-based; details: 10 micrograms per disk; ciprofloxacin 5, vancomycin 30 micrograms per disk; MHA with 5% dsb. and 5% CO2
[9] = tested on: Streptococcus pneumoniae ATCC 70676; experiment: microbroth dilution MIC; type: cell-based; details: ATCC70676, read-out: MIC Streptococcus pneumoniae ATCC 70676
[10] = tested on: Enterococcus faecalis ATCC 29212; experiment: disk diffusion assay; type: cell-based; details: 10 micrograms per disk; ciprofloxacin 5, vancomycin 30 micrograms per disk; 35° C.
[11] = tested on: Staphyloccus aureus MH II Eli Lilly Co.; experiment: microbroth dilution MIC; details: Staphylococcus aureus, read-out: MIC Staphyloccus aureus MH II Eli Lilly Co.
[12] = tested on: Enterococcus faecium ATCC 49624; experiment: disk diffusion assay; type: cell-based; details: 10 micrograms per disk; ciprofloxacin 5, vancomycin 30 micrograms per disk; 35° C.
[13] = tested on: Cell wall synthesis in Bacillus subtilis; experiment: macromolecular synthesis whole cell assay, [3H]N-acetyl glucosamine incorporation; type: cell-based; details: 1×MIC
[14] = tested on: Staphylococcus aureus ATCC 29213; experiment: disk diffusion assay; type: cell-based; details: 10 micrograms per disk; ciprofloxacin 5, vancomycin 30 micrograms per disk; 35° C.
[15] = tested on: Streptococcus pneumoniae ATCC 70674; experiment: microbroth dilution MIC; type: cell-based; details: ATCC70674, read-out: MIC Streptococcus pneumoniae ATCC 70674
[16] = tested on: Staphylococccus simulans 11631; experiment: microbroth dilution MIC; type: cell-based, Staphylococcus simulans; details: Staphylococcus simulans, ATCC11631; Table 15; read-out: MIC Staphylococcus simulans ATCC 11631
B. subtilis 1A757 = experiment: microbe, parasite or virus in culture; type: cell-based, Bacillus subtilis
[17] = tested on: Shigella dysenteriae ATCC 11835; experiment: microbroth dilution MIC; type: cell-based; details: ATCC11835, read-out: MIC Shigella dysenteriae ATCC 11835
[18] = tested on: Enterococcus faecium ATCC 51559; experiment: disk diffusion assay; type: cell-based; details: 10 micrograms per disk; ciprofloxacin 5, vancomycin 30 micrograms per disk; 35° C.

With `CN[C@H](CC(C)C)C(=O)N[C@H]1C(=O)N[C@@H](CC(N)=O)C(=O)N[C@H]2C(=O)N[C@H]3C(=O)N[C@H](C(=O)N[C@H](C(=O)O)c4cc(O)cc(O)c4-c4cc3ccc4O)[C@H](O)c3ccc(c(Cl)c3)Oc3cc2cc(c3O[C@@H]2O[C@H](CO)[C@@H](O)[C@H](O)[C@H]2O[C@H]2C[C@](C)(N)[C@H](O)[C@H](C)O2)Oc2ccc(cc2Cl)[C@H]1O` [Vancomycin, reference compound] the MIC [1] was 1 µg/mL (≈ 0.69 µM), the MIC [2] was 8 µg/mL (≈ 5.52 µM) and the MIC [3] was 0.125 µg/mL (≈ 0.0863 µM). For the same molecule, the MIC (S. aureus 29213) was 1 µg/mL (≈ 0.69 µM), the “diameter of the zone of inhibition, Neisseria gonnorhea ATCC 49226” value [4] was 13 mm and the MIC [5] was 2 µg/mL (≈ 1.38 µM). For the same molecule, the MIC [6] was 1 µg/mL (≈ 0.69 µM), the MIC [7] was 1 µg/mL (≈ 0.69 µM) and the MIC (E. faecium 49624) was 0.5 µg/mL (≈ 0.345 µM). The MIC (S. aureus ATCC 6583P) was 0.5 µg/mL (≈ 0.345 µM), the MIC (S. epidermis 12228) was 1 µg/mL (≈ 0.69 µM) and the “diameter of the zone of inhibition, Streptococcus pneumoniae ATCC 49619” value [8] was 20 mm. For the same molecule, the MIC [9] was 0.25 µg/mL (≈ 0.173 µM), the “diameter of the zone of inhibition, Enterococcus faecalis ATCC 29212” value [10] was 18 mm and the MIC [11] was 0.06 µg/mL (≈ 0.0414 µM). The “diameter of the zone of inhibition, Enterococcus faecium ATCC 49624” value [12] was 22 mm, the “% [3H]N-acetyl glucosamine (Cell wall synthesis) incorporation of that of the untreated culture” value ([13]; 5 min) was 33% and the “% [3H]N-acetyl glucosamine (Cell wall synthesis) incorporation of that of the untreated culture” value ([13]; 10 min) was 41%. The “diameter of the zone of inhibition, Staphylococcus aureus ATCC 29213” value [14] was 15 mm, the MIC [15] was 0.25 µg/mL (≈ 0.173 µM) and the MIC [16] was 1 µg/mL (≈ 0.69 µM). The “1×MIC against Bacillus subtilis” value (B. subtilis 1A757) was 0.25 micrograms/ml, the “increase of MICs when DNA was added” value (B. subtilis 1A757) was “not affected” and the MIC (B. subtilis 1A757; Bacillus subtilis, 1A757, read-out: MIC B. subtilis 1A757) was 0.125 µg/mL (≈ 0.0863 µM). The MIC [17] was 2 µg/mL (≈ 1.38 µM) and the “diameter of the zone of inhibition, Enterococcus faecium ATCC 51559” value [18] was 0 mm.
